This note sets out measurements from patent US4568545A, “Thrombolytic agent” (Amano Seiyaku Kabushiki Kaisha, priority 1982, dated 1986).

For the assay, the system named is thrombi formed from blood of a healthy adult. The assay is described as follows: Thrombolytic activity by the Chandler's loop method. It is filed as biochemical, human. The conditions noted are these: 60 minutes, 37° C. As to the method: Determination of the thrombolytic activity by the Chandler's loop method: the test solution and control solution were prepared by dissolving the protease and urokinase (a product by Otsuka Seiyaku Co.), respectively, in a physiological saline solution. […] The reference solution for the blank test was the physiological saline solution.
Formation of thrombi and measurement of the dissolution thereof were performed in the following manner. Thus, 0.8 ml of the above obtained fresh blood admixed with sodium citrate and 0.1 ml of a 3% aqueous solution of calcium chloride as CaCl2 ·2H2 O were introduced into a tube of polyvinyl chloride resin having an inner diameter of 3 mm and a length of 250 mm and the ends of the tube were connected to each other to form a loop which was put coaxially on a turntable inclined at an angle of 60° and rotated at 37° C. for 30 minutes at a velocity of 17 r.p.m. to form thrombi therein. Thereafter, 0.1 ml of one of the protease solutions, the urokinase solution or the reference solution was introduced into the loop which was rotated under the same conditions as above for 60 minutes. The thrombi remaining in the tube were then taken out and, after fixing with a Bouin's reagent, i.e. a solution prepared by adding 25 ml of a commercially available formalin solution and 5 ml of glacial acetic acid to 75 ml of a saturated aqueous solution of picric acid, the weight of the wet thrombi was measured.

In the case of Urokinase, the “% Thrombolysis” value is, setting by setting: (concentration in blood 50 Iu/ml blood) 8.0%; (concentration in blood 100 Iu/ml blood) 39.8%; (concentration in blood 150 Iu/ml blood) 49.7%; (concentration in blood 200 Iu/ml blood) 60.3%; (concentration in blood 250 Iu/ml blood) 66.4%.
